# Patent US20090042987A1, “TREATMENT OF NEUROPATHIC PAIN” (priority 2007, published 2009)
# Entries after “also recorded” stand apart in the source; their conditions may differ.
# Columns and labels:
# Assay type in all cases: in vivo, rat
# STZ-diabetic rats [1] = assay: von Frey paw withdrawal thresholds, STZ-diabetic rats given multiple dosing regimens (washout protocol), Example 1; settings: gabapentin 100 mg/kg s.c.
# Procedure: (§1) Experimental Animals Ethical approval for this study was obtained from the Animal Experimentation Ethics Committee of The University of Queensland. Adult male Sprague-Dawley (SD) rats (222±4 g) were used for this study. Rats were housed in a temperature controlled room (21+2.0 C) with a 12/12 hour light/dark cycle. Food and water were available ad libitum. Initiation of drug administration occurred at 8-11 weeks post-STZ administration for rats in Experiment 1 (PCT-001) and at 10-12 weeks post-STZ administration for rats in Experiment 2 (PCT-007).
# (§2) Test Article Tranilast was supplied by the Sponsor and stored at −4° C. until use. Gabapentin (100 mg/kg, dissolved in water for injection) was utilized as the positive control for this study.
# (§3) Test Article and Vehicle Preparation Test article formulations were prepared freshly on the day of administration by weighing the appropriate amount of bulk powder and suspending it in the required volume of vehicle. Carboxymethyl cellulose ((CMC) 0.5% in water for injection) was utilized as the vehicle for this study.
# (§4) Test Article Administration. […] The maximum oral gavage volume administered in this study was […]. 4.4
# (§5) STZ-Diabetic Rat Model of Painful Diabetic Neuropathy. Painful diabetic neuropathy is a common long-term complication of diabetes in humans that develops as a result of a sustained biochemical nerve injury. […] Following the induction of diabetes with intravenous STZ at 70-80 mg/kg, it generally takes 6-8 wks for tactile allodynia, the defining symptom of PDN, to fully develop in both rat hindpaws.
# (§6) Induction of STZ-Diabetes in Rats. On day 0, rats were anaesthetized with 3% isoflurane:97% O2 and a short polyethylene cannula (0.5 mm ID, 0.8 mm OD) was inserted into the jugular vein to facilitate the intravenous (i.v.) administration of a single dose of streptozotocin (STZ: 70-80 mg/kg). After STZ injection, the cannula was removed and the jugular vein was tied off and the wound was closed. Rats received subcutaneous benzylpenicillin (60 mg) prior to surgery to prevent infection and were kept warm during surgical recovery. Rats were housed singly prior to further experimentation and were monitored daily from the time of STZ administration with regard to general health and well-being.
# (§7) Von Frey Assessment of Paw Withdrawal Thresholds. Calibrated von Frey filaments were used to determine the lowest mechanical threshold required to evoke a brisk paw withdrawal reflex in the rat hindpaws. Briefly, rats were transferred individually to wire mesh testing cages (20 cm×20 cm×20 cm) and allowed to acclimatize for approximately 10-20 min prior to von Frey testing. Commencing with the von Frey filament that produced the 6 g force, the filament was applied to the plantar surface of the hindpaw until the filament buckled slightly. Absence of a response after 3 s prompted use of the next filament of increasing weight. A withdrawal response within 3 s prompted use of the next filament of decreasing weight. Filaments used produced buckling weights of 2, 4, 6, 8, 10, 12, 14, 16, 18 and 20 g. […] Tactile allodynia is regarded as being fully developed when von Frey PWTs in the injured hindpaws are <6 g.
# Restoring von-Frey PWTs in the hindpaws from <6 g to pre-STZ surgery levels (12±2 g) is the treatment goal representing full reversal of tactile allodynia. If drug treatment increases PWTs above pre-surgical baseline values (i.e. >12±2 g), such a response is classified as antinociception. Before administration of STZ, baseline von Frey measurements were assessed. Following STZ administration, baseline PWTs were assessed in the hindpaws at week 8-11 to confirm the development of diabetes-induced tactile allodynia. […]
# STZ-diabetic rats [2] = assay: Behavioural observations / adverse effects in STZ-diabetic rats; settings: gabapentin 100 mg/kg s.c., 7 consecutive twice-daily bolus doses
# Source text: Behavioural Observations. STZ-diabetic rats were monitored for visible and audible signs of distress throughout the testing period. The visible signs of distress included behavioural changes such as complete immobility, movement with abnormal gait, agitation, aggression, wet dog shakes, excessive grooming, restlessness with constant movement, repeated sudden movements or staring.
# [3] = tested on: drug-naïve STZ-diabetic rats; assay: von Frey paw withdrawal thresholds, drug-naïve STZ-diabetic rats, Example 2
# Procedure: as §1, §2, §3, §4, §5, §6, §7
# Restoring von-Frey PWTs in the hindpaws from <6 g to pre-STZ surgery levels (12±2 g) is the treatment goal representing full reversal of tactile allodynia. If drug treatment increases PWTs above pre-surgical baseline values (i.e. >12±2 g), such a response is classified as antinociception. Before administration of STZ, baseline von Frey measurements were assessed. Following STZ administration, baseline PWTs were assessed in the hindpaws at week 8-11 to confirm the development of diabetes-induced tactile allodynia.
# Dose-Response Curve for Tranilast in Drug-Naive STZ-Diabetic Rats. […]
# [4] = gabapentin 100 mg/kg s.c., 7th twice-daily dose
# [5] = gabapentin 100 mg/kg s.c., after 7th consecutive twice-daily dose
smiles,measurement,setting,value
NCC1(CC(=O)O)CCCCC1 [Gabapentin],Relief of tactile (mechanical) allodynia in the hindpaws,"STZ-diabetic rats [1]; 7 consecutive twice-daily doses, multiple dosing regimens",significant relief of tactile (mechanical) allodynia
same,Mean (±SEM) PWT at the mean time of peak response,"STZ-diabetic rats [1]; 7th twice-daily dose, 1 h post-dosing",11.0 (±1.0) g
same,Time of peak anti-allodynia post-dosing,"STZ-diabetic rats [1]; 7th twice-daily dose, multiple dosing regimens",0.75 to 1.25 h
same,Mean (±SEM) PWT pre-dose,"STZ-diabetic rats [1]; 7th twice-daily dose, pre-dose",4.5 (±0.5) g
same,Adverse (behavioural) effects,STZ-diabetic rats [2],no discernible adverse effects; also recorded: did not produce discernible adverse behavioural effects
same,"Baseline PWT thresholds assessed prior to dose 1, 3, 5 and 7",[3]; gabapentin 100 mg/kg s.c. twice-daily,not significantly different
same,Mean (±SEM) von Frey Paw Withdrawal threshold assessed prior to dose,"[3]; gabapentin 100 mg/kg s.c. twice-daily, prior to dose 1",3.7 ± 0.6 g
same,Mean (±SEM) von Frey Paw Withdrawal threshold assessed prior to dose,"[3]; gabapentin 100 mg/kg s.c. twice-daily, prior to dose 3",4.0 ± 0 g
same,Mean (±SEM) von Frey Paw Withdrawal threshold assessed prior to dose,"[3]; gabapentin 100 mg/kg s.c. twice-daily, prior to dose 5",4.7 ± 0.5 g
same,Mean (±SEM) von Frey Paw Withdrawal threshold assessed prior to dose,"[3]; gabapentin 100 mg/kg s.c. twice-daily, prior to dose 7",4.5 ± 0.4 g
same,Mean (±SEM) von Frey Paw Withdrawal threshold following the 7th consecutive dose,"[3]; gabapentin 100 mg/kg s.c. twice-daily, time 0 h (pre-dose)",4.5 ± 0.2 g
same,Mean (±SEM) von Frey Paw Withdrawal threshold following the 7th consecutive dose,"[3]; gabapentin 100 mg/kg s.c. twice-daily, time 0 h (pre-dose), listed as gabapentin",4.5 (±0.2) g
same,Mean (±SEM) von Frey Paw Withdrawal threshold following the 7th consecutive dose,"[3]; gabapentin 100 mg/kg s.c. twice-daily, time 0.15 h",5.75 ± 0.2 g
same,Mean (±SEM) von Frey Paw Withdrawal threshold following the 7th consecutive dose,"[3]; gabapentin 100 mg/kg s.c. twice-daily, time 0.5 h",6.25 ± 0.2 g
same,Mean (±SEM) von Frey Paw Withdrawal threshold following the 7th consecutive dose,"[3]; gabapentin 100 mg/kg s.c. twice-daily, time 0.75 h",7.5 ± 0.6 g
same,Mean (±SEM) von Frey Paw Withdrawal threshold following the 7th consecutive dose,"[3]; gabapentin 100 mg/kg s.c. twice-daily, time 1 h",8.5 ± 0.5 g
same,Mean (±SEM) von Frey Paw Withdrawal threshold following the 7th consecutive dose,"[3]; gabapentin 100 mg/kg s.c. twice-daily, time 1.25 h",9.0 ± 1.0 g
same,Mean (±SEM) von Frey Paw Withdrawal threshold following the 7th consecutive dose,"[3]; gabapentin 100 mg/kg s.c. twice-daily, time 1.25 h, listed as gabapentin",9.0 (±1.0) g
same,Mean (±SEM) von Frey Paw Withdrawal threshold following the 7th consecutive dose,"[3]; gabapentin 100 mg/kg s.c. twice-daily, time 1.5 h",9.0 ± 0.7 g
same,Mean (±SEM) von Frey Paw Withdrawal threshold following the 7th consecutive dose,"[3]; gabapentin 100 mg/kg s.c. twice-daily, time 2 h",7.0 ± 0.4 g
same,Mean (±SEM) von Frey Paw Withdrawal threshold following the 7th consecutive dose,"[3]; gabapentin 100 mg/kg s.c. twice-daily, time 3 h",6.5 ± 0.3 g
same,Relief of tactile allodynia in the hindpaws,"[3]; gabapentin 100 mg/kg s.c., 7 consecutive twice-daily doses",significant relief of tactile allodynia
same,Mean duration of action,[3]; [4],> 3 h
same,Time of peak anti-allodynia post-dosing,[3]; [4],1 to 1.5 h
same,Mean (±SEM) AUC (area under the normalized PWT versus time curve),[3]; [5],8.3 ± 0.4
same,Mean (±SEM) Peak response (PWT),[3]; [5],9.0 ± 1.0
same,Mean (±SEM) % MPR at peak,"[3]; gabapentin 100 mg/kg s.c., after 7th consecutive twice-daily dose, 100% MPR = full reversal of tactile allodynia",75.8 ± 17.2%
same,% MPR at the time of peak effect compared with vehicle,"[3]; gabapentin s.c. 100 mg/kg, 7th consecutive twice-daily dose",significantly greater than that for vehicle
